Test results: PMC11944884, “Bioactive Secondary Metabolites of Two Chinese Edible Boletes, Phlebopus portentosus and Butyriboletus roseoflavus” (Molecules, 2025)

Assays:
[1] = system: influenza virus B/Victoria strain; test: microbe, parasite or virus in culture; assay type: cell-based; settings: MDCK
[2] = system: A/H3N2 and B/Victoria strains; test: microbe, parasite or virus in culture; assay type: cell-based; settings: Influenza A virus, range over compounds 22 and 26 and both strains
influenza virus A/H3N2 = test: microbe, parasite or virus in culture; assay type: cell-based, influenza virus A (H3N2 strain)
BEL7402 = test: Cytotoxicity CCK-8 assay, BEL7402; assay type: cell-based; settings: Homo sapiens, Bel-7402; for IC50: BEL7402; for inhibition at 6.25 µM: BEL7402, 6.25 μM; for inhibition at 6.25 µM / inhibition at 12.5 µM / inhibition at 25 µM / inhibition at 50 µM / inhibition at 100 µM: 48 h, read-out: Cell proliferation inhibition (%); for inhibition at 12.5 µM: BEL7402, 12.5 μM; for inhibition at 25 µM: BEL7402, 25 μM; for inhibition at 50 µM: BEL7402, 50 μM; for inhibition at 100 µM: BEL7402, 100 μM
PC-3 = test: Cytotoxicity CCK-8 assay, PC-3; assay type: cell-based; settings: Homo sapiens; for IC50: PC-3; for inhibition at 6.25 µM: PC-3, 6.25 μM; for inhibition at 6.25 µM / inhibition at 12.5 µM / inhibition at 25 µM / inhibition at 50 µM / inhibition at 100 µM: 48 h, read-out: Cell proliferation inhibition (%); for inhibition at 12.5 µM: PC-3, 12.5 μM; for inhibition at 25 µM: PC-3, 25 μM; for inhibition at 50 µM: PC-3, 50 μM; for inhibition at 100 µM: PC-3, 100 μM
SGC7901 = test: Cytotoxicity CCK-8 assay, SGC7901; assay type: cell-based; settings: Homo sapiens, SGC-7901; for IC50: SGC7901; for inhibition at 6.25 µM: SGC7901, 6.25 μM; for inhibition at 6.25 µM / inhibition at 12.5 µM / inhibition at 25 µM / inhibition at 50 µM / inhibition at 100 µM: 48 h, read-out: Cell proliferation inhibition (%); for inhibition at 12.5 µM: SGC7901, 12.5 μM; for inhibition at 25 µM: SGC7901, 25 μM; for inhibition at 50 µM: SGC7901, 50 μM; for inhibition at 100 µM: SGC7901, 100 μM
Hela229 = test: Cytotoxicity CCK-8 assay, Hela229; assay type: cell-based; settings: Homo sapiens, HeLa 229; for IC50: Hela229; for inhibition at 6.25 µM: Hela229, 6.25 μM; for inhibition at 6.25 µM / inhibition at 12.5 µM / inhibition at 25 µM / inhibition at 50 µM / inhibition at 100 µM: 48 h, read-out: Cell proliferation inhibition (%); for inhibition at 12.5 µM: Hela229, 12.5 μM; for inhibition at 25 µM: Hela229, 25 μM; for inhibition at 50 µM: Hela229, 50 μM; for inhibition at 100 µM: Hela229, 100 μM
[3] = system: Hela229, SGC7901, PC-3, BEL7402, and MCF-7/ADR; test: Cytotoxicity CCK-8 assay, small panel of human cancer cell lines (summary statements); assay type: cell-based; settings: Hela229, SGC7901, PC-3, and BEL7402 cells, read-out: IC50s
MCF-7/ADR = test: Cytotoxicity CCK-8 assay, MCF-7/ADR; assay type: cell-based; settings: Homo sapiens, NCI/ADR-RES; for inhibition at 6.25 µM / inhibition at 12.5 µM / inhibition at 25 µM / inhibition at 50 µM / inhibition at 100 µM: 48 h, read-out: Cell proliferation inhibition (%)
SH-SY5Y cells = test: Neuroprotection against Aβ25−35-induced neurotoxicity (MTT)
Protocol: The cells, obtained from the American Type Culture Collection (ATCC, Manassas, VA, USA) at high passages, maintained at 37 °C in a humidified atmosphere containing 5% CO2. Cells were seeded into 96-well plates at a density of 2 × 10^5 cells/mL in MEM/F12 medium supplemented with 10% (v/v) fetal bovine serum. Experiments were carried out after 24 h of seeding. Test compounds and positive control (epigallocatechin-3-gallate, EGCG; NAC) were made to 10^−2 M stock solutions with DMSO and then diluted to corresponding concentrations with cell culture medium. Cells were incubated with test compounds or EGCG (10 μM, Sigma, St. Louis, MO, USA, purity > 98%)/NAC for 2 h, followed by exposure to 80 μM H2O2 or 10 μM Aβ25−35 for another 24 h without medium replacement. After treatment, 10 μL of MTT (5 mg/mL) was added to each well and incubated at 37 °C for 3 h. The cells were finally lysed with 100% DMSO, and the absorbance of MTT formazan was measured at 490 nm using a microplate reader.

[4] = Influenza A virus, H3N2, MDCK, read-out: CPE inhibition
[5] = Homo sapiens, SH-SY5Y, read-out: Cell viability (% of control group)

Which results are given for `CC(C)[C@@H](C)/C=C/[C@@H](C)[C@H]1CC[C@H]2C3=C(CC[C@]12C)[C@@]1(C)CC[C@H](O)C[C@@]12O[C@H]2[C@H]3O` [Compound 26, (22E,24R)-5α,6α-epoxy-ergosta-8,22-dien-3β,7α-diol]?
EC50 [1]: 3.6 µM; IC50 [1]: 3.6 µM; inhibition at 0.78 µM ([1]; read-out: CPE inhibition): 6.6%; inhibition at 1.56 µM ([1]; read-out: CPE inhibition): 15%; inhibition at 3.13 µM ([1]; read-out: CPE inhibition): 25%; inhibition at 6.25 µM ([1]; read-out: CPE inhibition): 75%; inhibition at 12.5 µM ([1]; read-out: CPE inhibition): 75%; EC50 [2]: 3.6 to 9.6 µM; IC50 (influenza virus A/H3N2; Influenza A virus, H3N2, MDCK): 4 µM; inhibition at 0.78 µM (influenza virus A/H3N2; [4]): 3.3%; inhibition at 1.56 µM (influenza virus A/H3N2; [4]): 15%; inhibition at 3.13 µM (influenza virus A/H3N2; [4]): 27.5%; inhibition at 6.25 µM (influenza virus A/H3N2; [4]): 75%; inhibition at 12.5 µM (influenza virus A/H3N2; [4]): 82.5%; EC50 (influenza virus A/H3N2; MDCK): 4 µM

How did the IC50 (BEL7402) turn out when `CC(C)[C@@H](C)/C=C/[C@@H](C)[C@H]1CC[C@H]2C3=CC(=O)O[C@@]3(O)CC[C@]12C` [Compound 33, demethylincisterol A3] was run?
The IC50 was 27.7 µM.

And the inhibition at 6.25 µM (BEL7402)?
Its inhibition at 6.25 µM is 10%.

What about the inhibition at 12.5 µM (BEL7402) of the same compound?
Its inhibition at 12.5 µM is 15.3%.

And the inhibition at 25 µM (BEL7402)?
The inhibition at 25 µM was 49.4%.

And the inhibition at 50 µM (BEL7402)?
Its inhibition at 50 µM is 75.3%.

And the inhibition at 100 µM (BEL7402)?
The inhibition at 100 µM was 82.8%.

And the IC50 (PC-3)?
Its IC50 is 28.4 µM.

What about the inhibition at 6.25 µM (PC-3) of the same compound?
Its inhibition at 6.25 µM is 12.4%.

And the inhibition at 12.5 µM (PC-3)?
The inhibition at 12.5 µM was 21.6%.

And the inhibition at 25 µM (PC-3)?
The inhibition at 25 µM was 47.3%.

And the inhibition at 50 µM (PC-3)?
The inhibition at 50 µM was 67.7%.

What about the inhibition at 100 µM (PC-3) of the same compound?
Its inhibition at 100 µM is 85.9%.

What about the IC50 (SGC7901) of the same compound?
The IC50 was 26.7 µM.

What about the inhibition at 6.25 µM (SGC7901) of the same compound?
The inhibition at 6.25 µM was 8.3%.

And the inhibition at 12.5 µM (SGC7901)?
Its inhibition at 12.5 µM is 16.7%.

And the inhibition at 25 µM (SGC7901)?
Its inhibition at 25 µM is 39.1%.

And the inhibition at 50 µM (SGC7901)?
Its inhibition at 50 µM is 93.5%.

What about the inhibition at 100 µM (SGC7901) of the same compound?
Its inhibition at 100 µM is 94.7%.

What about the IC50 (Hela229) of the same compound?
Its IC50 is 24.4 µM.

What about the inhibition at 6.25 µM (Hela229) of the same compound?
Its inhibition at 6.25 µM is -4.8%.

What about the inhibition at 12.5 µM (Hela229) of the same compound?
Its inhibition at 12.5 µM is 5.8%.

And the inhibition at 25 µM (Hela229)?
Its inhibition at 25 µM is 52.3%.

What about the inhibition at 50 µM (Hela229) of the same compound?
The inhibition at 50 µM was 96.2%.

What about the inhibition at 100 µM (Hela229) of the same compound?
The inhibition at 100 µM was 96.7%.

And the IC50 [3]?
Its IC50 is 20 to 30 µM.

And the IC50 (MCF-7/ADR)?
Its IC50 is > 50 µM.

And the inhibition at 6.25 µM (MCF-7/ADR)?
The inhibition at 6.25 µM was 5.5%.

And the inhibition at 12.5 µM (MCF-7/ADR)?
The inhibition at 12.5 µM was 5.1%.

And the inhibition at 25 µM (MCF-7/ADR)?
Its inhibition at 25 µM is 27.1%.

And the inhibition at 50 µM (MCF-7/ADR)?
The inhibition at 50 µM was 42.6%.

And the inhibition at 100 µM (MCF-7/ADR)?
The inhibition at 100 µM was 81.6%.

For “epigallocatechin-3-gallate [EGCG, reference compound]”, which “Cell viability (% of control group)” value (SH-SY5Y cells; 10 μM compound, 10 μM Aβ25-35, mean ± SEM) is on record?
Its value is 104.80%.

How did the viability at 2.5 µM (SH-SY5Y cells; [5]) turn out when `O=C1O/C(=C(/C(=O)O)c2ccc(O)cc2)C(O)=C1c1ccc(O)c(O)c1` [Compound 18, xerocomic acid] was run?
The viability at 2.5 µM was 78.2 ± 1.53%.

And the viability at 5 µM (SH-SY5Y cells; [5])?
The viability at 5 µM was 77.6 ± 1.97%.

What about the viability at 10 µM (SH-SY5Y cells; [5]) of the same compound?
The viability at 10 µM was 80.3 ± 1.39%.

And the viability at 20 µM (SH-SY5Y cells; [5])?
The viability at 20 µM was 81.2 ± 1.79%.

What about the viability at 40 µM (SH-SY5Y cells; [5]) of the same compound?
Its viability at 40 µM is 90.5%.

How did the IC50 (BEL7402) turn out when `O=C1NCCc2c1[nH]c1ccccc21` [Compound 9, 1,2,3,4-tetrahydro-1-oxo-β-carboline] was run?
Its IC50 is 41.5 µM.

What about the inhibition at 6.25 µM (BEL7402) of the same compound?
Its inhibition at 6.25 µM is 12.5%.

What about the inhibition at 12.5 µM (BEL7402) of the same compound?
Its inhibition at 12.5 µM is 24.4%.

And the inhibition at 25 µM (BEL7402)?
Its inhibition at 25 µM is 44.4%.

What about the inhibition at 50 µM (BEL7402) of the same compound?
The inhibition at 50 µM was 56.4%.

What about the inhibition at 100 µM (BEL7402) of the same compound?
The inhibition at 100 µM was 63.6%.

What about the IC50 (PC-3) of the same compound?
The IC50 was > 50 µM.

And the inhibition at 6.25 µM (PC-3)?
The inhibition at 6.25 µM was 3%.

And the inhibition at 12.5 µM (PC-3)?
Its inhibition at 12.5 µM is 1.7%.

What about the inhibition at 25 µM (PC-3) of the same compound?
Its inhibition at 25 µM is 4%.

What about the inhibition at 50 µM (PC-3) of the same compound?
Its inhibition at 50 µM is 2.6%.

What about the inhibition at 100 µM (PC-3) of the same compound?
Its inhibition at 100 µM is 14%.

What about the IC50 (SGC7901) of the same compound?
Its IC50 is > 50 µM.

What about the inhibition at 6.25 µM (SGC7901) of the same compound?
The inhibition at 6.25 µM was 13.2%.

What about the inhibition at 12.5 µM (SGC7901) of the same compound?
Its inhibition at 12.5 µM is 17.5%.

And the inhibition at 25 µM (SGC7901)?
Its inhibition at 25 µM is 27.1%.

What about the inhibition at 50 µM (SGC7901) of the same compound?
Its inhibition at 50 µM is 37.4%.

What about the inhibition at 100 µM (SGC7901) of the same compound?
Its inhibition at 100 µM is 44.3%.

What about the IC50 (Hela229) of the same compound?
The IC50 was 10.8 µM.

What about the inhibition at 6.25 µM (Hela229) of the same compound?
Its inhibition at 6.25 µM is 37.1%.

And the inhibition at 12.5 µM (Hela229)?
Its inhibition at 12.5 µM is 53.7%.

What about the inhibition at 25 µM (Hela229) of the same compound?
Its inhibition at 25 µM is 68.7%.

And the inhibition at 50 µM (Hela229)?
Its inhibition at 50 µM is 83.3%.

And the inhibition at 100 µM (Hela229)?
The inhibition at 100 µM was 88%.

What about the IC50 (MCF-7/ADR) of the same compound?
The IC50 was > 50 µM.

And the inhibition at 6.25 µM (MCF-7/ADR)?
Its inhibition at 6.25 µM is -0.9%.

And the inhibition at 12.5 µM (MCF-7/ADR)?
The inhibition at 12.5 µM was 1.7%.

What about the inhibition at 25 µM (MCF-7/ADR) of the same compound?
Its inhibition at 25 µM is 3.4%.

And the inhibition at 50 µM (MCF-7/ADR)?
The inhibition at 50 µM was 2.9%.

And the inhibition at 100 µM (MCF-7/ADR)?
Its inhibition at 100 µM is 2.5%.
